Legend:
Format in all cases: in vivo
[1] = tested on: Echinochloa oryzacola Vasing.; experiment: Test Example 2: herbicidal activity, application during weed generation in submerged conditions; settings: Eighteenth Table; application herbicide amount 320 g/ha
Summary of the method: (§1)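 Post-emergence application under submerged conditions: water-diluted emulsion dosed onto the water surface (g/ha) when weeds reach one- to two-leaf stage. Soil flooded to 4 cm; greenhouse 25–30 °C. Herbicidal ratio graded in six classes, 0 (≤5%) to 5 (≥90%), at three weeks.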

Monochoria vaginalis = experiment: as above; settings: Eighteenth Table; application herbicide amount 320 g/ha
Summary of the method: as §1

Scirpus juncoides = experiment: as above; settings: Eighteenth Table; application herbicide amount 320 g/ha
Summary of the method: as §1

Abutilon theophrasti = experiment: Test Example 4: herbicidal effect by application to foliage (diluvial soil, plastic box); settings: for M (Abutilon theophrasti) herbicidal effect: application to foliage, application herbicide amount 320 g/ha
Summary of the method: (§2)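 Emulsion-formulated compound, diluted to a predetermined g/ha dose, applied by small sprayer to leaves and stems of 14-day-old seedlings grown in sterilized diluvial soil. Effect rated on 0–5 herbicidal-ratio scale three weeks on.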

Alopecurus myosuroides = experiment: as above; settings: for J (Alopecurus myosuroides) herbicidal effect: application to foliage, application herbicide amount 320 g/ha
Summary of the method: as §2

Apera spica-venti. = experiment: as above; settings: for L (Apera spica-venti.) herbicidal effect: application to foliage, application herbicide amount 320 g/ha
Summary of the method: as §2

Avena fatua = experiment: as above; settings: for I (Avena fatua) herbicidal effect: application to foliage, application herbicide amount 320 g/ha
Summary of the method: as §2

Chenopodium album = experiment: as above; settings: for O (Chenopodium album) herbicidal effect: application to foliage, application herbicide amount 320 g/ha
Summary of the method: as §2

Digitaria ciliaris = experiment: as above; settings: for F (Digitaria ciliaris) herbicidal effect: application to foliage, application herbicide amount 320 g/ha
Summary of the method: as §2

[2] = tested on: Echinochloa crus-galli var. crus-galli; experiment: as above; settings: for H (Echinochloa crus-galli var. crus-galli) herbicidal effect: application to foliage, application herbicide amount 320 g/ha
Summary of the method: as §2

Galium spurium = experiment: as above; settings: for Q (Galium spurium) herbicidal effect: application to foliage, application herbicide amount 320 g/ha
Summary of the method: as §2

Lolium multiflorum Lam. = experiment: as above; settings: for K (Lolium multiflorum Lam.) herbicidal effect: application to foliage, application herbicide amount 320 g/ha
Summary of the method: as §2

Setaria viridis = experiment: as above; settings: for G (Setaria viridis) herbicidal effect: application to foliage, application herbicide amount 320 g/ha
Summary of the method: as §2

Veronica persica = experiment: as above; settings: for R (Veronica persica) herbicidal effect: application to foliage, application herbicide amount 320 g/ha
Summary of the method: as §2

[3] = tested on: Beta vulgaris ssp. vulgaris; experiment: Test Example 4: effect on crop by application to foliage (diluvial soil, plastic box); settings: for f (Beta vulgaris ssp. vulgaris) effect on crop: application to foliage, application herbicide amount 320 g/ha
Summary of the method: as §2

Brassica campestris L. = experiment: as above; settings: for g (Brassica campestris L.) effect on crop: application to foliage, application herbicide amount 320 g/ha
Summary of the method: as §2

Glycine max = experiment: as above; settings: for c (Glycine max) effect on crop: application to foliage, application herbicide amount 320 g/ha
Summary of the method: as §2

Triticum aestivum = experiment: as above; settings: for e (Triticum aestivum) effect on crop: application to foliage, application herbicide amount 320 g/ha
Summary of the method: as §2

Zea mays = experiment: as above; settings: for b (Zea mays) effect on crop: application to foliage, application herbicide amount 320 g/ha
Summary of the method: as §2

[4] = tested on: directly sowed Oryza sativa; experiment: as above; settings: for d (directly sowed Oryza sativa) effect on crop: application to foliage, application herbicide amount 320 g/ha
Summary of the method: as §2

[5] = Application herbicide amount 320 g/ha
[6] = Application herbicide amount 320 g/ha, effect on crop

Structure (SMILES): Cc1nnc(NC(=O)c2ccc(C(F)(F)F)n3c(C4CCCC4)nnc23)o1 [1-026]
- A (Echinochloa oryzicola Vasing.) herbicidal ratio grade [1]: 3 (Herbicidal ratio of 40% or more and less than 70%)
- C (Monochoria vaginalis) herbicidal ratio grade (Monochoria vaginalis): 0 (Herbicidal ratio of 5% or less (almost no effect))
- B (Scirpus juncoides) herbicidal ratio grade (Scirpus juncoides): 1 (Herbicidal ratio of 5% or more and less than 20%)
- M (Abutilon theophrasti) herbicidal effect (Abutilon theophrasti): 3 (Herbicidal ratio of 40% or more and less than 70%)
- J (Alopecurus myosuroides) herbicidal effect (Alopecurus myosuroides): 1 (Herbicidal ratio of 5% or more and less than 20%)
- L (Apera spica-venti.) herbicidal effect (Apera spica-venti.): 2 (Herbicidal ratio of 20% or more and less than 40%)
- I (Avena fatua) herbicidal effect (Avena fatua): 1 (Herbicidal ratio of 5% or more and less than 20%)
- O (Chenopodium album) herbicidal effect (Chenopodium album): 5 (Herbicidal ratio of 90% or more (almost completely withered))
- F (Digitaria ciliaris) herbicidal effect (Digitaria ciliaris): 3 (Herbicidal ratio of 40% or more and less than 70%)
- H (Echinochloa crus-galli var. crus-galli) herbicidal effect [2]: 3 (Herbicidal ratio of 40% or more and less than 70%)
- Q (Galium spurium) herbicidal effect (Galium spurium): 2 (Herbicidal ratio of 20% or more and less than 40%)
- K (Lolium multiflorum Lam.) herbicidal effect (Lolium multiflorum Lam.): 1 (Herbicidal ratio of 5% or more and less than 20%)
- G (Setaria viridis) herbicidal effect (Setaria viridis): 3 (Herbicidal ratio of 40% or more and less than 70%)
- R (Veronica persica) herbicidal effect (Veronica persica): 5 (Herbicidal ratio of 90% or more (almost completely withered))
- f (Beta vulgaris ssp. vulgaris) effect on crop [3]: 5 (Herbicidal ratio of 90% or more (almost completely withered))
- g (Brassica campestris L.) effect on crop (Brassica campestris L.): 3 (Herbicidal ratio of 40% or more and less than 70%)
- c (Glycine max) effect on crop (Glycine max): 0 (Herbicidal ratio of 5% or less (almost no effect))
- e (Triticum aestivum) effect on crop (Triticum aestivum): 1 (Herbicidal ratio of 5% or more and less than 20%)
- b (Zea mays) effect on crop (Zea mays): 0 (Herbicidal ratio of 5% or less (almost no effect))
- d (directly sowed Oryza sativa) effect on crop [4]: 3 (Herbicidal ratio of 40% or more and less than 70%)

Structure (SMILES): Cc1nnc(NC(=O)c2ccc(C(F)(F)F)n3c(N4CCOCC4)nnc23)o1 [1-096]
- A (Echinochloa oryzicola Vasing.) herbicidal ratio grade [1]: 4 (Herbicidal ratio of 70% or more and less than 90%)
- C (Monochoria vaginalis) herbicidal ratio grade (Monochoria vaginalis): 4 (Herbicidal ratio of 70% or more and less than 90%)
- B (Scirpus juncoides) herbicidal ratio grade (Scirpus juncoides): 3 (Herbicidal ratio of 40% or more and less than 70%)
- M (Abutilon theophrasti; [5]): 4 (Herbicidal ratio of 70% or more and less than 90%)
- J (Alopecurus myosuroides; [5]): 1 (Herbicidal ratio of 5% or more and less than 20%)
- L (Apera spica-venti.; [5]): 3 (Herbicidal ratio of 40% or more and less than 70%)
- I (Avena fatua; [5]): 2 (Herbicidal ratio of 20% or more and less than 40%)
- O (Chenopodium album; [5]): 5 (Herbicidal ratio of 90% or more (almost completely withered))
- F (Digitaria ciliaris; [5]): 5 (Herbicidal ratio of 90% or more (almost completely withered))
- H [2, 5]: 5 (Herbicidal ratio of 90% or more (almost completely withered))
- Q (Galium spurium; [5]): 4 (Herbicidal ratio of 70% or more and less than 90%)
- K (Lolium multiflorum Lam.; [5]): 2 (Herbicidal ratio of 20% or more and less than 40%)
- G (Setaria viridis; [5]): 5 (Herbicidal ratio of 90% or more (almost completely withered))
- R (Veronica persica; [5]): 5 (Herbicidal ratio of 90% or more (almost completely withered))
- f [3, 6]: 5 (Herbicidal ratio of 90% or more (almost completely withered))
- g (Brassica campestris L.; [6]): 5 (Herbicidal ratio of 90% or more (almost completely withered))
- c (Glycine max; [6]): 4 (Herbicidal ratio of 70% or more and less than 90%)
- e (Triticum aestivum; [6]): 1 (Herbicidal ratio of 5% or more and less than 20%)
- b (Zea mays; [6]): 4 (Herbicidal ratio of 70% or more and less than 90%)
- d [4, 6]: 4 (Herbicidal ratio of 70% or more and less than 90%)

Structure (SMILES): Cc1ccc(-c2nnc3c(C(=O)Nc4nnc(C)o4)ccc(C(F)(F)F)n23)cc1 [1-043]
- A (Echinochloa oryzicola Vasing.) herbicidal ratio grade [1]: 3 (Herbicidal ratio of 40% or more and less than 70%)
- C (Monochoria vaginalis) herbicidal ratio grade (Monochoria vaginalis): 3 (Herbicidal ratio of 40% or more and less than 70%)
- B (Scirpus juncoides) herbicidal ratio grade (Scirpus juncoides): 3 (Herbicidal ratio of 40% or more and less than 70%)
- M (Abutilon theophrasti) herbicidal effect (Abutilon theophrasti): 5 (Herbicidal ratio of 90% or more (almost completely withered))
- J (Alopecurus myosuroides) herbicidal effect (Alopecurus myosuroides): 1 (Herbicidal ratio of 5% or more and less than 20%)
- L (Apera spica-venti.) herbicidal effect (Apera spica-venti.): 1 (Herbicidal ratio of 5% or more and less than 20%)
- I (Avena fatua) herbicidal effect (Avena fatua): 2 (Herbicidal ratio of 20% or more and less than 40%)
- O (Chenopodium album) herbicidal effect (Chenopodium album): 5 (Herbicidal ratio of 90% or more (almost completely withered))
- F (Digitaria ciliaris) herbicidal effect (Digitaria ciliaris): 4 (Herbicidal ratio of 70% or more and less than 90%)
- H (Echinochloa crus-galli var. crus-galli) herbicidal effect [2]: 5 (Herbicidal ratio of 90% or more (almost completely withered))
- Q (Galium spurium) herbicidal effect (Galium spurium): 3 (Herbicidal ratio of 40% or more and less than 70%)
- K (Lolium multiflorum Lam.) herbicidal effect (Lolium multiflorum Lam.): 1 (Herbicidal ratio of 5% or more and less than 20%)
- G (Setaria viridis) herbicidal effect (Setaria viridis): 3 (Herbicidal ratio of 40% or more and less than 70%)
- R (Veronica persica) herbicidal effect (Veronica persica): 4 (Herbicidal ratio of 70% or more and less than 90%)
- f (Beta vulgaris ssp. vulgaris) effect on crop [3]: 5 (Herbicidal ratio of 90% or more (almost completely withered))
- g (Brassica campestris L.) effect on crop (Brassica campestris L.): 3 (Herbicidal ratio of 40% or more and less than 70%)
- c (Glycine max) effect on crop (Glycine max): 2 (Herbicidal ratio of 20% or more and less than 40%)
- e (Triticum aestivum) effect on crop (Triticum aestivum): 0 (Herbicidal ratio of 5% or less (almost no effect))
- b (Zea mays) effect on crop (Zea mays): 4 (Herbicidal ratio of 70% or more and less than 90%)
- d (directly sowed Oryza sativa) effect on crop [4]: 2 (Herbicidal ratio of 20% or more and less than 40%)

Structure (SMILES): CC(C)c1nnc2c(C(=O)Nc3nnc(C4CC4)o3)ccc(C(F)(F)F)n12 [1-051]
- A (Echinochloa oryzicola Vasing.) herbicidal ratio grade [1]: 4 (Herbicidal ratio of 70% or more and less than 90%)
- C (Monochoria vaginalis) herbicidal ratio grade (Monochoria vaginalis): 4 (Herbicidal ratio of 70% or more and less than 90%)
- B (Scirpus juncoides) herbicidal ratio grade (Scirpus juncoides): 3 (Herbicidal ratio of 40% or more and less than 70%)
- M (Abutilon theophrasti) herbicidal effect (Abutilon theophrasti): 5 (Herbicidal ratio of 90% or more (almost completely withered))
- J (Alopecurus myosuroides) herbicidal effect (Alopecurus myosuroides): 0 (Herbicidal ratio of 5% or less (almost no effect))
- L (Apera spica-venti.) herbicidal effect (Apera spica-venti.): 1 (Herbicidal ratio of 5% or more and less than 20%)
- I (Avena fatua) herbicidal effect (Avena fatua): 1 (Herbicidal ratio of 5% or more and less than 20%)
- O (Chenopodium album) herbicidal effect (Chenopodium album): 5 (Herbicidal ratio of 90% or more (almost completely withered))
- F (Digitaria ciliaris) herbicidal effect (Digitaria ciliaris): 3 (Herbicidal ratio of 40% or more and less than 70%)
- H (Echinochloa crus-galli var. crus-galli) herbicidal effect [2]: 4 (Herbicidal ratio of 70% or more and less than 90%)
- Q (Galium spurium) herbicidal effect (Galium spurium): 2 (Herbicidal ratio of 20% or more and less than 40%)
- K (Lolium multiflorum Lam.) herbicidal effect (Lolium multiflorum Lam.): 1 (Herbicidal ratio of 5% or more and less than 20%)
- G (Setaria viridis) herbicidal effect (Setaria viridis): 3 (Herbicidal ratio of 40% or more and less than 70%)
- R (Veronica persica) herbicidal effect (Veronica persica): 3 (Herbicidal ratio of 40% or more and less than 70%)
- f (Beta vulgaris ssp. vulgaris) effect on crop [3]: 3 (Herbicidal ratio of 40% or more and less than 70%)
- g (Brassica campestris L.) effect on crop (Brassica campestris L.): 1 (Herbicidal ratio of 5% or more and less than 20%)
- c (Glycine max) effect on crop (Glycine max): 0 (Herbicidal ratio of 5% or less (almost no effect))
- e (Triticum aestivum) effect on crop (Triticum aestivum): 1 (Herbicidal ratio of 5% or more and less than 20%)
- b (Zea mays) effect on crop (Zea mays): 0 (Herbicidal ratio of 5% or less (almost no effect))
- d (directly sowed Oryza sativa) effect on crop [4]: 1 (Herbicidal ratio of 5% or more and less than 20%)

From US9708314B2, “Heterocyclic amide compound” (NISSAN CHEMICAL INDUSTRIES, LTD., priority 2013, dated 2017)
